# Measured values: patent US12612416B2, “Modulators of cystic fibrosis transmembrane conductance regulator” (VERTEX PHARMACEUTICALS INCORPORATED, priority 2020, dated 2026)
# Where two headings read alike, the source gives them in different places.
# Tests used:
# [1] = 13-membered ring
# [2] = target: CFTR-mediated chloride transport in human intestinal epithelial enteroid cells (Homo sapiens, UniProt P13569); experiment: Membrane potential dye, Enteroid Assay B; format: cell-based; conditions: for Ent. B Max Activity: % of chloride transport of triple combination control: 1 μM (14S)-8-[3-(2-{Dispiro[2.0.2.1]heptan-7-yl}ethoxy)-1H-pyrazol-1-yl]-12,12-dimethyl-...-2,2,4-trione, 3 μM tezacaftor, 300 nM acute ivacaftor; for EC50: enteroid cells, 18-24 hours incubation, acute 10 μM forskolin and 300 nM ivacaftor, read-out: Ent. B EC50
# Chain of CFTR-mediated chloride transport in human intestinal epithelial enteroid cells (P13569 with tags, fused parts or gaps DEL508-508): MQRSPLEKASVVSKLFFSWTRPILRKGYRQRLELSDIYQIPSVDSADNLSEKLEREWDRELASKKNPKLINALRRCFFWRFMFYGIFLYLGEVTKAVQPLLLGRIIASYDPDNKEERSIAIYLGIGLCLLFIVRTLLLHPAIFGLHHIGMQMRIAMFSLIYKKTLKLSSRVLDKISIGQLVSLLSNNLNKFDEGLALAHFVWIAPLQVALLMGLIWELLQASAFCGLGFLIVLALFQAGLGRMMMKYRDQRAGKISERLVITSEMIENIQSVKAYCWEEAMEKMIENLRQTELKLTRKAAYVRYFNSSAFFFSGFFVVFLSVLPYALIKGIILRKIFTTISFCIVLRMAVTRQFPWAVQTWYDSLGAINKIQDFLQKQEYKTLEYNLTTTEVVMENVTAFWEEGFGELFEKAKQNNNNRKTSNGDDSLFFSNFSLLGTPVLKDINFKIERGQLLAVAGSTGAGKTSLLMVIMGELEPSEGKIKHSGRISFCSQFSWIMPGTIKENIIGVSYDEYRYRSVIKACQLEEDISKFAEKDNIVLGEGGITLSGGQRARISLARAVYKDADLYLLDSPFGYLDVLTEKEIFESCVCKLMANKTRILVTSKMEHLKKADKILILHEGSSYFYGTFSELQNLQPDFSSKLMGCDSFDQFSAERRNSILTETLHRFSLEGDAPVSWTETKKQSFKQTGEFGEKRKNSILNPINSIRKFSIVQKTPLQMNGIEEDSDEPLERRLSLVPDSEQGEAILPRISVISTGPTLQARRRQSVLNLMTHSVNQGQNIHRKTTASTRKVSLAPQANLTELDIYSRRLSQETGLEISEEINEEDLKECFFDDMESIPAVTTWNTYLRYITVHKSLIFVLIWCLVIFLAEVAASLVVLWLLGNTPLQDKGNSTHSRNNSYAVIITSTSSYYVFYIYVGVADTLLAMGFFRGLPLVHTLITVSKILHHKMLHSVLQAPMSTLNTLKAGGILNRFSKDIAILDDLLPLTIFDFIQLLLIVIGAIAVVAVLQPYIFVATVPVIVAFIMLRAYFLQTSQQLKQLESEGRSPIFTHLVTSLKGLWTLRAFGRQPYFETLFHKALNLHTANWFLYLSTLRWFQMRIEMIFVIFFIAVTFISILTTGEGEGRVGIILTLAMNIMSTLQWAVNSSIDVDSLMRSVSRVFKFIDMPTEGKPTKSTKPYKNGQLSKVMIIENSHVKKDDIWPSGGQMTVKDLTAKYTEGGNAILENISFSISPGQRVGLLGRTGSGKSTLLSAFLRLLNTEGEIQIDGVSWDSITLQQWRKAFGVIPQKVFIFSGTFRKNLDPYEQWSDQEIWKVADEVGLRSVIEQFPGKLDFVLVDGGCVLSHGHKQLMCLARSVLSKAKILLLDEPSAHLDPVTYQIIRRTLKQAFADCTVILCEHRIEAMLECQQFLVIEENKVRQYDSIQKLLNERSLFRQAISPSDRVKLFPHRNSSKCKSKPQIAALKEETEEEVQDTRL
# Procedure: Base medium (ADF+++) consisted of Advanced DMEM/Ham's F12, 2 mM Glutamax, 10 mM HEPES, […] penicillin/streptomycin.
# Intestinal enteroid maintenance medium (IEMM) consisted of ADF+++, 1×B27 supplement, 1×N2 supplement, 1.25 mM N-acetyl cysteine, 10 mM Nicotinamide, 50 ng/mL hEGF, 10 nM Gastrin, 1 μg/mL hR-spondin-1, 100 ng/mL hNoggin, TGF-b type 1 inhibitor A-83-01, 100 μg/mL Primocin, 10 μM P38 MAPK inhibitor SB202190.
# Bath 1 Buffer consisted of 1 mM MgCl2, 160 mM NaCl, 4.5 mM KCl, 10 mM HEPES, 10 mM Glucose, 2 mM CaCl2).
# Chloride Free Buffer consisted of 1 mM Magnesium Gluconate, 2 mM Calcium Gluconate, 4.5 mM Potassium Gluconate, 160 mM Sodium Gluconate, 10 mM HEPES, 10 mM Glucose.
# BathI Dye Solution consisted of Bath 1 Buffer, 0.04% Pluronic F127, 20 μM Methyl Oxonol, 30 μM CaCCinh-A01, 30 μM Chicago Sky Blue.
# Chloride Free Dye Solution consisted of Chloride Free Buffer, 0.04% Pluronic F127, 20 μM Methyl Oxonol, 30 μM CaCCinh-A01, 30 μM Chicago Sky Blue.
# Chloride Free Dye Stimulation Solution consisted of Chloride Free Dye Solution, 10 μM forskolin, 100 μM IBMX, and 300 nM Compound III.
# Human intestinal epithelial enteroid cells were obtained from the Hubrecht Institute for Developmental Biology and Stem Cell Research, Utrecht, The Netherlands and expanded in T-Flasks as previously described (Dekkers J F, Wiegerinck C L, de Jonge H R, Bronsveld I, Janssens H M, de Winter-de Groot K M, Brandsma A M, de Jong N W M, Bijvelds M J C, Scholte B J, Nieuwenhuis E E S, van den Brink S, Clevers H, van der Ent C K, Middendorp S and M Beekman J M. A functional CFTR assay using primary cystic fibrosis intestinal organoids. Nat Med. 2013 July; 19(7):939-45.).
# Cells were recovered in cell recovery solution, collected by centrifugation at 650 rpm for 5 minutes at 4° C., resuspended in TrypLE and incubated for 5 minutes at 37° C. Cells were then collected by centrifugation at 650 rpm for 5 minutes at 4° C. and resuspended in IEMM containing 10 μM ROCK inhibitor (RI). The cell suspension was passed through a 40 μm cell strainer and resuspended at 1×10^6 cells/mL in IEMM containing 10 μM RI. Cells were seeded at 5000 cells/well into multi-well plates and incubated for overnight at 37° C., 95% humidity and 5% CO2 prior to assay.
# Enteroid cells were incubated with test compound in IEMM for 18-24 hours at 37° C., 95% humidity, and 5% C02. […] Briefly, cells were washed 5 times in Bath 1 Buffer. Bath 1 Dye Solution was added and the cells were incubated for 25 minutes at room temperature. Following dye incubation, cells were washed 3 times in Chloride Free Dye Solution. Chloride transport was initiated by addition of Chloride Free Dye Stimulation Solution and the fluorescence signal was read for 15 minutes. […] Chloride transport was then expressed as a percentage of the chloride transport following treatment with 1 μM (14S)-8-[3-(2-{Dispiro[2.0.2.1]heptan-7-yl}ethoxy)-1H-pyrazol-1-yl]-12,12-dimethyl-2λ^6-thia-3,9,11,18,23-pentaazatetracyclo[17.3.1.111,14.05,10]tetracosa-1(22),5,7,9,19(23),20-hexaene-2,2,4-trione, 3 μM (R)-1-(2,2-difluorobenzo[d][1,3]dioxol-5-yl)-N-(1-(2,3-dihydroxypropyl)-6-fluoro-2-(1-hydroxy-2-methylpropan-2-yl)-1H-indol-5-yl)cyclopropanecarboxamide and 300 nM acute N-[2,4-bis(1,1-dimethylethyl)-5-hydroxyphenyl]-1,4-dihydro-4-oxoquinoline-3-carboxamide triple combination control (% Activity).
SMILES,Ent. B Max Activity [2],EC50 [2],also measured
COC(=O)C1CC2(C1)CC(N1C(=O)c3cccc(c3)S(=O)(=O)Nc3nc(cc(-c4c(C)cccc4C)n3)CC[C@H]1CC(C)(C)C)C2 (stereo partly shown),,,"ring closure, yield after HPLC ([1]; from COC(=O)C1CC2(CC(N[C@@H](CCc3cc(-c4c(C)cccc4C)nc(NS(=O)(=O)c4cccc(C(=O)O)c4)n3)CC(C)(C)C)C2)C1, amide bond, CDMT/NMM, DMF, 48.6 mM, 18.0 h): 80%"
COc1c2nc(nc1-c1c(C)cccc1C)NS(=O)(=O)c1cccc(c1)C(=O)N(Cc1cncc(N(C)C3CCC3)n1)[C@H](CC(C)(C)C)CC2,,,"ring closure, yield after HPLC ([1]; from COc1c(CC[C@@H](CC(C)(C)C)NCc2cncc(N(C)C3CCC3)n2)nc(NS(=O)(=O)c2cccc(C(=O)O)c2)nc1-c1c(C)cccc1C, amide bond, CDMT/NMM, DMF, 13.3 mM, 72.5 h): 33%"
Cc1cccc(C)c1-c1cc2nc(n1)NS(=O)(=O)c1cccc(c1)C(=O)N1Cc3cc(C(C)(C)C)ccc3[C@@H](O2)[C@H]1CC(C)C,,,"ring closure, yield after HPLC ([1]; from Cc1cccc(C)c1-c1cc(O[C@@H]2c3ccc(C(C)(C)C)cc3CN[C@@H]2CC(C)C)nc(NS(=O)(=O)c2cccc(C(=O)O)c2)n1, amide bond, HATU/NaOtBu, THF/DMF, 25.0 °C, 3 steps): 1%"
Cc1cccc(C)c1-c1cc2nc(n1)NS(=O)(=O)c1cccc(c1)C(=O)N1Cc3cc(C(C)(C)C)ccc3[C@H](O2)[C@H]1CC(C)C,,,"ring closure, yield after HPLC ([1]; from Cc1cccc(C)c1-c1cc(O[C@H]2c3ccc(C(C)(C)C)cc3CN[C@@H]2CC(C)C)nc(NS(=O)(=O)c2cccc(C(=O)O)c2)n1, amide bond, HATU/NaOtBu, THF/DMF, 80.1 mM, 25.0 °C, 3 steps): 27%"
Cc1cccc(C)c1-c1cc2nc(n1)NS(=O)(=O)c1cccc(c1)C(=O)O[C@H]1c3ccc(C(C)(C)C)cc3CN2[C@@H]1CC(C)C,,,"ring closure, yield after HPLC ([1]; from Cc1cccc(C)c1-c1cc(N2Cc3cc(C(C)(C)C)ccc3[C@H](O)[C@H]2CC(C)C)nc(NS(=O)(=O)c2cccc(C(=O)O)c2)n1, ester bond, HATU/NaOtBu, THF/DMF, 25.0 °C, 3 steps): 4%"
Cc1cccc(C)c1-c1nc2nc(c1C)OCCNC(=O)c1cccc(c1)S(=O)(=O)N2,,,"ring closure, yield after HPLC ([1]; from Cc1cccc(C)c1-c1nc(NS(=O)(=O)c2cccc(C(=O)O)c2)nc(OCCN)c1C, amide bond, HATU/DIEA, DMF, 50.7 mM, 25.0 °C): 23%"
"Cc1cccc(C)c1-c1cc2cc(n1)NS(=O)(=O)c1cccc(c1)C(=O)N(C1CC3(CC3)C1)[C@H](CC(C)C)CC2 [Compound 3, (11S)-6-(2,6-Dimethylphenyl)-11-isobutyl-2,2-dioxo-12-spiro[2.3]hexan-5-yl-2 λ6-thia-3,5,12-triazatricyclo[12.3.1.14,8]nonadeca-1(18),4(19),5,7,14,16-hexaen-13-one]",+++ (+++ is >60%),< 1000 nM,"ring closure, yield after HPLC ([1]; from Cc1cccc(C)c1-c1cc(CC[C@@H](CC(C)C)NC2CC3(CC3)C2)cc(NS(=O)(=O)c2cccc(C(=O)O)c2)n1, amide bond, HATU/DIEA, DMF, 26.7 mM, 25.0 °C, 0.25 h): 19%"
"Cc1cccc(C)c1-c1nc2nc(c1F)CC[C@@H](CC(C)C)N(C1CC3(CC3)C1)C(=O)c1cccc(c1)S(=O)(=O)N2 [Compound 4, (11S)-6-(2,6-Dimethylphenyl)-7-fluoro-11-isobutyl-2,2-dioxo-12-spiro[2.3]hexan-5-yl-2 λ6-thia-3,5,12,19-tetrazatricyclo[12.3.1.14,8]nonadeca-1(18),4(19),5,7,14,16-hexaen-13-one]",+++ (+++ is >60%),< 1000 nM,"ring closure, yield after HPLC ([1]; from Cc1cccc(C)c1-c1nc(NS(=O)(=O)c2cccc(C(=O)O)c2)nc(CC[C@@H](CC(C)C)NC2CC3(CC3)C2)c1F, amide bond, HATU/DIEA, NMP, 100.9 mM, 25.0 °C, 20.0 h): 30%"
"COCCN1CCC2(CC1)CC(N1C(=O)c3cccc(c3)S(=O)(=O)Nc3nc(cc(-c4c(C)cccc4C)n3)CC[C@H]1CC(C)C)C2 [Compound 9, (11S)-6-(2,6-Dimethylphenyl)-11-isobutyl-12-[7-(2-methoxyethyl)-7-azaspiro[3.5]nonan-2-yl]-2,2-dioxo-2λ6-thia-3,5,12,19-tetrazatricyclo[12.3.1.14,8]nonadeca-1(18),4(19),5,7,14,16-hexaen-13-one]",+++ (+++ is >60%),< 1000 nM,
"Cc1cccc(C)c1-c1cc2nc(n1)NS(=O)(=O)c1cccc(c1)C(=O)N(CCCC(C)(C)O)CCC2C (stereo not shown) [Compound 10, 6-(2,6-Dimethylphenyl)-12-(4-hydroxy-4-methyl-pentyl)-9-methyl-2,2-dioxo-2λ6-thia-3,5,12,19-tetrazatricyclo[12.3.1.14,8]nonadeca-1(18),4(19),5,7,14,16-hexaen-13-one]",+++ (+++ is >60%),1000 to 3000 nM,
Cc1cccc(C)c1-c1cc2nc(n1)NS(=O)(=O)c1cccc(c1)C(=O)N[C@H](CC(C)C)CC2 [Compound 14],+++ (+++ is >60%),< 1000 nM,
Cc1cccc(C)c1-c1cc2nc(n1)NS(=O)(=O)c1cccc(n1)C(=O)N(C1CC3(CC3)C1)[C@H](CC(C)C)CC2 [Compound 15],++ (++ is 30-60%),< 1000 nM,
Cc1cccc(C)c1-c1cc2nc(n1)NS(=O)(=O)c1cccc(c1)C(=O)N(Cc1ccc(C(C)(C)O)cc1)CCC2C (stereo not shown) [Compound 16],+++ (+++ is >60%),< 1000 nM,
Cc1cccc(C)c1-c1cc2nc(n1)NS(=O)(=O)c1cccc(c1)C(=O)N(C)CCC2C (stereo not shown) [Compound 17],+++ (+++ is >60%),1000 to 3000 nM,
Cc1cccc(C)c1-c1cc2nc(n1)NS(=O)(=O)c1cccc(c1)C(=O)N(Cc1ncccn1)CCC2C (stereo not shown) [Compound 18],+++ (+++ is >60%),1000 to 3000 nM,
Cc1cccc(C)c1-c1cc2nc(n1)NS(=O)(=O)c1cccc(c1)C(=O)N(C1CC3(CC3)C1)CCC2c1ccc(C(C)(C)C)cc1 (stereo not shown) [Compound 19],++ (++ is 30-60%),< 1000 nM,
Cc1cccc(C)c1-c1cc2nc(n1)NS(=O)(=O)c1cccc(c1)C(=O)N(C1CC3(CC3)C1)CC2Cc1ccc(C(C)(C)C)cc1 (stereo not shown) [Compound 20],++ (++ is 30-60%),< 1000 nM,
Cc1cccc(C)c1-c1cc2nc(n1)NS(=O)(=O)c1cccc(c1)C(=O)N(C1CC3(CC3)C1)CC[C@H]2c1ccc(C(C)(C)C)cc1 [Compound 22],++ (++ is 30-60%),< 1000 nM,
Cc1cccc(C)c1-c1cc2nc(n1)NS(=O)(=O)c1cccc(c1)C(=O)N(C1CC3(CC3)C1)CC[C@H]2c1ccc(C(C)(C)C)cc1 [Compound 23],++ (++ is 30-60%),,
Cc1cccc(C)c1-c1cc2nc(n1)NS(=O)(=O)c1cccc(c1)C(=O)OC[C@@H](CC(C)(C)C)N2c1ccnn1C [Compound 29],+ (+ is <30%),,
Cc1cccc(C)c1-c1cc2nc(n1)NS(=O)(=O)c1cccc(c1)C(=O)OC[C@@H](CC(C)(C)C)N2Cc1nccc(C(F)(F)F)n1 [Compound 32],+ (+ is <30%),,
"Cc1cccc(C)c1-c1cc2nc(n1)NS(=O)(=O)c1cccc(c1)C(=O)N(C1CC3(CC3)C1)CCC21CC1 [Compound 41, 6-(2,6-Dimethylphenyl)-2,2-dioxo-12-spiro[2.3]hexan-5-yl-spiro[2λ6-thia-3,5,12,19-tetrazatricyclo[12.3.1.14,8]nonadeca-1(18),4(19),5,7,14,16-hexaene-9,1′-cyclopropane]-13-one]",++ (++ is 30-60%),< 1000 nM,
